Test results reported in US20200179294A1, “MANGANOPORPHYRIN-POLYPHENOL MULTILAYER CAPSULES AS RADICAL AND REACTIVE OXYGEN SPECIES SCAVENGERS” (THE UAB RESEARCH FOUNDATION, priority 2018, published 2020).

Test: Ellipsometry of dry TA/MnP-PVPON films at pH 5 and pH 2.5 (film stability)
Assay type: physicochemical
Experimental: The stability of the MnP-PVPON/TA multilayers dried from pH=2.5 was examined since ionization of TA is minimized at this pH (below the pKa of TA), which could result in destabilization of the film.
Ellipsometry: Film thickness was measured using a M2000U spectroscopic ellipsometer (Woollam). Single-side polished silicon wafers 500-μm-thick (University Wafer) of 20 mm×50 mm were cleaned in a mixture of concentrated sulfuric acid and Nocromix (Godax Laboratories) for 24 hours, washed with DI water, dried with a stream of nitrogen (Airgas) and used immediately thereafter. First, a precursor layer of poly(ethyleneimine) (PEI, Sigma-Aldrich) was adsorbed onto the wafer surface from 1 mg mL^−1 PEI aqueous solution for 10 min. After that the deposition of TA, PVPON and MnP-PVPON onto silicon wafers coated with a PEI layer was performed using a 5-mL liquid flow-through cell (Woollam) at pH=5 and pH=7.2 (0.01 M phosphate buffer). The pH values of 0.01 M phosphate buffers were adjusted using 0.1 M HCl and NaOH aqueous solutions. Dry thickness measurements were performed between 400 and 1000 nm at 65, 70, and 75° angles of incidence, while wet thickness studies were monitored at 75° incidence angle. […] The thickness of silicon oxide was determined using known optical constants. […]

- Layer thickness: 1.8 nm
- Total thickness: 4.1 nm
Structure (SMILES): O=C(OC[C@H]1O[C@@H](OC(=O)c2cc(O)c(O)c(OC(=O)c3cc(O)c(O)c(O)c3)c2)[C@H](OC(=O)c2cc(O)c(O)c(OC(=O)c3cc(O)c(O)c(O)c3)c2)[C@@H](OC(=O)c2cc(O)c(O)c(OC(=O)c3cc(O)c(O)c(O)c3)c2)[C@@H]1OC(=O)c1cc(O)c(O)c(OC(=O)c2cc(O)c(O)c(O)c2)c1)c1cc(O)c(O)c(OC(=O)c2cc(O)c(O)c(O)c2)c1 [TA, tannic acid]
